Where no end group is shown, it is not given here.
What was measured:
human monocytes = assay: Chemotaxis assay (modified Boyden chamber), monocytes; format: cell-based; conditions: FIG. 6B; control peptide at concentrations less than 10 μM
Description: FIGS. 6A and 6B show chemotactic effect of peptides. Assays were performed using a modified Boyden chamber assay, as described in the Examples. Isolated human neutrophils (A) or monocytes (B) (1×10^6 cells/ml in serum free RPMI) were added to the upper wells of a 96-well chemotaxis chamber and migration across a 3 μm pore size (5 μm for monocytes) polycarbonate membrane was assessed after 2 hrs incubation at 37° C. The numbers of migrated cells were determined by counting them in a high power field (400×). Results are presented as means±S.E. of three independent experiments each performed in duplicate.
Chemotaxis assays were performed using multiwell chambers (Neuroprobe Inc., Gaithersburg, Md.) (Bae et al. Blood. 2001. 97: 2854-2862). Briefly, prepared human monocytes were suspended in RPMI at a concentration of 1×10^6 cells/ml, and 25 μl of the suspension was then placed onto the upper well of a chamber separated by a 5 μm polyhydrocarbon filter (3 μm pores size not polyvinylpyrrolidone coated, as is needed for neutrophils) from peptides or N-formyl-methionyl-leucyl-phenylalanine (fMLF) in the lower well. After incubation for 2 hours (90 minutes for neutrophils) at 37° C., non-migrated cells were removed by scraping, and cells that migrated across the filter were dehydrated, fixed, and stained with hematoxylin (Sigma, St. Louis, Mo.). Stained cells were counted in five randomly chosen high power fields (HPF) (400×) (Bae et al. Blood. 2001. 97: 2854-2862).

ERK = ERK phosphorylation in dHL60 cells (anti-phospho-ERK immunoblot); format: cell-based, human; conditions: for Phosphorylation level of ERK: dHL60 cells (FIG. 9); for Effect of LY294002 (PI3K) on peptide-induced ERK phosphorylation / Effect of PD98059 (MEK) on peptide-induced ERK phosphorylation / Time of maximal ERK activation after stimulation / Effect of GF109203X (PKC) on peptide-induced ERK phosphorylation: dHL60 cells; for Effect of LY294002 (PI3K) on peptide-induced ERK phosphorylation: LY294002 (50 μM) 15 minutes; for Effect of LY294002 (PI3K) on peptide-induced ERK phosphorylation / Effect of PD98059 (MEK) on peptide-induced ERK phosphorylation / Effect of GF109203X (PKC) on peptide-induced ERK phosphorylation: 1 μM peptide 5 minutes; for Effect of PD98059 (MEK) on peptide-induced ERK phosphorylation: PD98059 (50 μM) 60 minutes; for Time of maximal ERK activation after stimulation: data not shown; for Effect of GF109203X (PKC) on peptide-induced ERK phosphorylation: GF109203X (5 μM) 15 minutes
Description: Each sample (30 μg of protein) was subjected to 8% SDS-PAGE, and phosphorylated ERK was quantified by immunoblot analysis with anti-phospho-ERK antibody. The results shown are from a single experiment representative of at least three independent experiments.
Extracellular signal regulated protein kinase (ERK) is a well-known intracellular enzyme that mediates diverse cellular responses (Sugden et al. Cell Signal. 1997. 9: 337-351). […] To compare the intracellular signaling involving these 4 peptides, dHL60 cells were pretreated either with LY294002 (50 μM), GF109203X (5 μM), or PD98059 (50 μM) or left untreated as a control. After being incubated for the indicated periods (15 minutes for LY294002 and GF109203X, 60 minutes for PD98059), the cells were stimulated with 1 μM of each peptide for 5 minutes.

neutrophils = assay: [Ca2+]i rise in neutrophils; format: cell-based, human; conditions: 10 μM (FIG. 5)
Description: (§1) Peripheral blood leukocyte concentrates were donated by the Ulsan Red Cross Blood Center (Ulsan, Korea). PBMCs were separated on a Histopaque-1077 gradient. After two washings with HBSS without Ca^2+ and Mg^2+, the PBMCs were suspended in 10% FBS containing RPMI and incubated for 60 min at 37° C. to let the monocytes attach to the culture dish. Cells were washed 5 times with warmed RPMI medium to remove lymphocytes, and then the attached monocytes were collected, as described previously (Bae et al. J. Leukoc. Biol. 1999. 65: 241-248). Human neutrophils were isolated according to standard procedures; i.e., dextran sedimentation, hypotonic lysis of erythrocytes, and using a medium lymphocyte separation gradient, as described previously (Seo et al. J. Immunol. 1997. 158: 1895-1901). Isolated human leukocytes were then used promptly.
(§2) The level of [Ca^2+]i was determined using Grynkiewicz's method using fura-2/AM (Grynkiewicz et al. J. Biol. Chem. 1985. 260: 3440-3550). Briefly, prepared cells were incubated with 3 μM of fura-2/AM at 37° C. for 50 min in serum-free RPMI 1640 medium under continuous stirring. […] Fluorescence changes were measured at the dual excitation wavelength of 340 nm and 380 nm, and the calculated fluorescence ratio was translated into [Ca^2+]i.

Monocytes = assay: [Ca2+]i rise in monocytes; format: cell-based, human; conditions: 10 μM (FIG. 5)
Description: as §1, §2

U937 cells = assay: [Ca2+]i rise in U937 cells; format: cell-based, human; conditions: 10 μM (FIG. 5)
Description: (§3) U937 (human histiocytic lymphoma cells), HL60 (human promyelocytic leukemia cells), Raw 264.7 (mouse macrophage), Jurkat (human acute T cell leukemia), PC12 (rat adrenal pheochromocytoma cells), 3Y1 (Rat embryonic fibroblasts), 3T3L1 (preadipocytes), and NCI-H292 (human mucoepidermoid pulmonary carcinoma cells) were obtained from the American Type Culture Collection (Rockville, Md.) and maintained as recommended. FPR- or FPRL1 expressing RBL-2H3 cells were cultured as described previously (He et al. J. Immunol. 2000. 165: 4598-4605). Cells were maintained at about 1×10^6 cells/ml under standard incubator conditions (humidified atmosphere, 95% air, 5% CO2, at 37° C.). HL60 cells were induced to differentiate into the granulocyte phenotype by adding dimethylsulfoxide (DMSO) (final concentration 1.25%, v/v) for 4 days to the culture medium, as described previously (Itoh et al. Blood. 1998. 92: 1432-1441).
as §2

Raw 264.7 = assay: [Ca2+]i rise in Raw 264.7 cells; format: cell-based, mouse; conditions: Raw 264.7, 10 μM (FIG. 5)
Description: as §3, §2

Jurkat cells = assay: [Ca2+]i rise in Jurkat cells; format: cell-based, human; conditions: 10 μM (FIG. 5)
Description: as §3, §2

3Y1 = assay: [Ca2+]i rise in 3Y1 cells; format: cell-based, Rat; conditions: 3Y1, 10 μM
Description: as §3, §2

PC12 = assay: [Ca2+]i rise in PC12 cells; format: cell-based, rat; conditions: PC12, 10 μM
Description: as §3, §2

NCI-H292 = assay: [Ca2+]i rise in NCI-H292 cells; format: cell-based, human; conditions: NCI-H292, 10 μM
Description: as §3, §2

HUVEC = assay: [Ca2+]i rise in HUVEC; format: cell-based; conditions: 10 μM
Description: The level of [Ca^2+]i was determined using Grynkiewicz's method using fura-2/AM (Grynkiewicz et al. J. Biol. Chem. 1985. 260: 3440-3550). Briefly, prepared cells were incubated with 3 μM of fura-2/AM at 37° C. for 50 min in serum-free RPMI 1640 medium under continuous stirring. 2×10^6 cells were aliquoted for each assay in Ca^2+ free Locke's solution (154 mM NaCl, 5.6 mM KCl, 1.2 mM MgCl2, 5 mM HEPES, pH 7.3, 10 mM glucose, and 0.2 mM EGTA). Fluorescence changes were measured at the dual excitation wavelength of 340 nm and 380 nm, and the calculated fluorescence ratio was translated into [Ca^2+]i.

Row | Substance | Cellular chemotaxis in human monocytes (in words) (human monocytes) | Phosphorylation level of ERK (ERK) | Effect of LY294002 (PI3K) on peptide-induced ERK phosphorylation (ERK) | Effect of PD98059 (MEK) on peptide-induced ERK phosphorylation (ERK) | Time of maximal ERK activation after stimulation (ERK) | [Ca^2+]i rise (neutrophils) | [Ca^2+]i rise (Monocytes) | [Ca^2+]i rise (U937 cells) | [Ca^2+]i rise (Raw 264.7) | [Ca^2+]i rise (Jurkat cells) | [Ca^2+]i rise (3Y1) | [Ca^2+]i rise (PC12) | [Ca^2+]i rise (NCI-H292) | [Ca^2+]i rise (HUVEC) | Effect of GF109203X (PKC) on peptide-induced ERK phosphorylation (ERK)
1 | MKYYKM-NH2 [Peptide P21] | induced cellular chemotaxis | dramatic increase | PI3K and MEK-dependency | PI3K and MEK-dependency | 5 min | – | – | – | – | – | – | – | – | – | –
2 | MKYYYM-NH2 [Peptide P24] | induced cellular chemotaxis | dramatic increase | partially blocked | – | 5 min | resulted in a [Ca^2+]i rise | activated | activated | not activated | not activated | no response | no response | no response | no response | not by GF109203X
3 | RKYHVM-NH2 [Peptide P14] | induced cellular chemotaxis | dramatic increase | blocked | blocked | 5 min | – | – | – | – | – | – | – | – | – | blocked

Reference: patent US7622551B2, “Leukocyte stimulating peptides” (POSCO, priority 2004, dated 2009)
